± gives the standard deviation of the averaged measurements.
How the values were obtained:
Test in all cases: level (log10 ratio to DMSO vehicle control); higher = higher biomarker level / cell amount than vehicle control
Settings in all cases: in DMSO
[1] = compound: O=C(O)C(F)(F)OC(F)(F)C(F)(F)OC(F)(F)C(=O)O [Perfluoro-3,6-dioxaoctane-1,8-dioic acid]
Protocol: (§1)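 BioMAP Diversity Plus panel of 12 human primary cell co-culture systems (3C, 4H, LPS, SAg, BT, BF4T, BE3C, CASM3C, HDF3CGF, KF3CT, MyoF, Mphg). Compounds were added 1 h before stimulation and left for 24 h (MyoF 48 h; BT 72 h for soluble read-outs or 6 d for IgG). Biomarkers were read by ELISA, cytotoxicity by SRB, PBMC viability and proliferation by Alamar Blue. Each well value was divided by the mean of 8 DMSO control wells on the same plate and log10 transformed; duplicate blinded samples were tested at 4 concentrations.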

[2] = compound: FC(F)(F)C(F)(C(F)(F)F)C(F)(F)C(F)(F)CC1CO1 [3-(Perfluoro-3-methylbutyl)-1,2-propenoxide]
Protocol: as §1

[3] = compound: CCN(CCO)S(=O)(=O)C(F)(F)C(F)(F)C(F)(F)C(F)(F)C(F)(F)C(F)(F)C(F)(F)C(F)(F)F [N-Ethyl-N-(2-hydroxyethyl)perfluorooctanesulfonamide]
Protocol: as §1

Perfluoropentanoic acid = compound: O=C(O)C(F)(F)C(F)(F)C(F)(F)C(F)(F)F [Perfluoropentanoic acid]
Protocol: as §1

Perfluoropropanoic acid = compound: O=C(O)C(F)(F)C(F)(F)F [Perfluoropropanoic acid]
Protocol: as §1

[4] = compound: OCCC(F)(F)C(F)(F)C(F)(F)C(F)(F)C(F)(F)C(F)(F)F [6:2 Fluorotelomer alcohol]
Protocol: as §1

Heptafluorobutyramide = compound: NC(=O)C(F)(F)C(F)(F)C(F)(F)F [Heptafluorobutyramide]
Protocol: as §1

Test System	level (log10) ([1]; 6700 nM)	level (log10) ([1]; 20000 nM)	level (log10) ([1]; 60000 nM)	level (log10) ([2]; 6700 nM)	level (log10) ([2]; 20000 nM)	level (log10) ([3]; 6700 nM)	level (log10) ([3]; 20000 nM)	level (log10) (Perfluoropentanoic acid; 6700 nM)	level (log10) (Perfluoropentanoic acid; 20000 nM)	level (log10) (Perfluoropentanoic acid; 60000 nM)	level (log10) (Perfluoropropanoic acid; 6700 nM)	level (log10) (Perfluoropropanoic acid; 20000 nM)	level (log10) (Perfluoropropanoic acid; 60000 nM)	level (log10) ([4]; 6700 nM)	level (log10) ([4]; 20000 nM)	level (log10) (Heptafluorobutyramide; 6700 nM)	level (log10) (Heptafluorobutyramide; 20000 nM)	level (log10) (Heptafluorobutyramide; 60000 nM)
SAg:PBMC Cytotoxicity	0.0115 ± 0.023	0.012 ± 0.0099	0.0115 ± 0.0078	0.008 ± 0.0071	0.016 ± 0.023	-0.039 ± 0.052	-0.0865 ± 0.042	-0.0105 ± 0.023	-0.0135 ± 0.012	0.0145 ± 0.022	-0.001 ± 0.013	-0.0055 ± 0.0092	0.009 ± 0.044	0.0025 ± 0.005	0.023 ± 0.028	0.001 ± 0.014	-0.0125 ± 0.021	0.019 ± 0.0099
LPS:CD40	0.025 ± 0.0099	0.0195 ± 0.005	-0.0175 ± 0.053	-0.0195 ± 0.015	-0.007 ± 0.034	0.0735 ± 0.022	0.122 ± 0.0042	0.0115 ± 0.011	0.0075 ± 0.022	-0.0265 ± 0.013	0.0105 ± 0.043	-0.0235 ± 0.0035	0.011 ± 0.023	-0.0015 ± 0.03	-0.0315 ± 0.015	0.0065 ± 0.022	-0.004 ± 0.071	0.001 ± 0.059
BE3C:CD54/ICAM-1	-0.003 ± 0.021	-0.0035 ± 0.0092	0.002 ± 0.038	-0.0095 ± 0.019	-0.0065 ± 0.0092	0.0705 ± 0.033	0.0555 ± 0.013	-0.006 ± 0.0085	-0.0095 ± 0.00071	0.0055 ± 0.039	-0.025 ± 0.017	0 ± 0.0014	0.007 ± 0.016	0.0035 ± 0.018	0.001 ± 0.016	-0.0195 ± 0.019	0.002 ± 0.0014	0.0035 ± 0.015
SAg:CD69	0.0045 ± 0.0021	0.007 ± 0.0057	0 ± 0.0014	-0.0125 ± 0.015	-0.006 ± 0.059	-0.043 ± 0.016	-0.085 ± 0.04	0.002 ± 0.016	-0.0155 ± 0.028	-0.0165 ± 0.033	-0.0175 ± 0.005	-0.019 ± 0.0042	-0.008 ± 0.023	0.012 ± 0.025	-0.012 ± 0.016	0.031 ± 0.034	0.02 ± 0.016	0.0165 ± 0.05
BF4T:CD90	-0.012 ± 0.0028	-0.0085 ± 0.005	-0.004 ± 0.0028	-0.0175 ± 0.00071	-0.0165 ± 0.03	-0.013 ± 0.0099	-0.0145 ± 0.005	-0.02 ± 0.0085	-0.0105 ± 0.005	-0.0025 ± 0.025	-0.003 ± 0.014	0.003 ± 0.0014	0 ± 0.016	-0.0035 ± 0.0021	-0.0165 ± 0.011	0.002 ± 0.013	-0.008 ± 0.0085	0.003 ± 0.0042
BT:sTNF-alpha	-0.0245 ± 0.043	-0.139 ± 0.035	-0.019 ± 0.2	0.0545 ± 0.076	0.0925 ± 0.093	-0.031 ± 0.082	-0.312 ± 0.1	-0.0575 ± 0.25	0.0875 ± 0.012	0.105 ± 0.04	0.0405 ± 0.06	0.058 ± 0.096	-0.0255 ± 0.11	0.071 ± 0.028	-0.0445 ± 0.015	0.0705 ± 0.096	-0.057 ± 0.025	-0.0225 ± 0.0035
4H:CCL2/MCP-1	0.003 ± 0.041	-0.032 ± 0.018	0.0205 ± 0.0035	-0.038 ± 0.013	0.001 ± 0.042	-0.007 ± 0.0099	-0.159 ± 0.044	-0.0085 ± 0.052	-0.047 ± 0.0042	0.014 ± 0.052	-0.0455 ± 0.022	-0.0145 ± 0.039	0.0285 ± 0.039	0.009 ± 0.0085	-0.0065 ± 0.018	-0.026 ± 0.013	-0.0325 ± 0.022	0.004 ± 0.095
BE3C:IL-1alpha	0.0105 ± 0.0092	0.013 ± 0.0099	0.0235 ± 0.063	0.002 ± 0.025	0.023 ± 0.057	0.0165 ± 0.005	-0.0485 ± 0.059	0.005 ± 0.02	0 ± 0.0028	0.0155 ± 0.029	-0.019 ± 0.016	-0.021 ± 0.04	-0.0115 ± 0.023	0.019 ± 0.016	0.008 ± 0.0057	-0.0085 ± 0.052	0.027 ± 0.037	-0.004 ± 0.076
BE3C:CXCL8/IL-8	-0.0485 ± 0.0092	-0.0355 ± 0.0078	0.007 ± 0.05	0.011	0.0205 ± 0.023	-0.0825 ± 0.013	-0.218 ± 0.056	-0.023 ± 0.0042	-0.036 ± 0.017	-0.0085 ± 0.057	-0.0355 ± 0.083	0.001 ± 0.083	0.0605 ± 0.13	0.01 ± 0.048	-0.0085 ± 0.021	0.038 ± 0.0014	0.0365 ± 0.012	0.038 ± 0.051
BE3C:CXCL10/IP-10	-0.003 ± 0.0057	0 ± 0.0014	0.005 ± 0.013	-0.0115 ± 0.023	-0.0065 ± 0.011	-0.051 ± 0.0028	-0.141 ± 0.028	-0.0085 ± 0.016	-0.013 ± 0.021	0.0005 ± 0.005	-0.0125 ± 0.019	0.0035 ± 0.022	0.014 ± 0.025	-0.0035 ± 0.005	0.006 ± 0.0028	-0.0025 ± 0.00071	-0.0175 ± 0.012	0.0075 ± 0.018
